Measured values from paper PMC5325326, “Evaluation of the intestinal permeability of rosemary (Rosmarinus officinalis L.) extract polyphenols and terpenoids in Caco-2 cell monolayers” (PLoS ONE, 2017).
“Also recorded” adds a separate entry of the source. Read-outs that look alike come from different tables or passages of the source.

How the values were obtained:
[1] = BCS classification based on experimental Papp (AB direction, free formulation); type: in vitro ADME; set-up: dose or concentration left out as unconfirmed; conditions: human, Caco-2, pH 7.4, versus metoprolol Papp, Table 2, read-out: Permeability Based on Papp
Text: The Biopharmaceutical Classification System (BCS) was developed by Amidon and coworkers twenty years ago to classify drugs for a waiver of in vivo bioequivalence studies. This system classifies drugs into four categories based on their intestinal permeability and solubility (see S1 Table), and currently this system is accepted worldwide by researchers and governmental institutions such as the FDA and EMA. In addition to its regulatory use, BCS is a tool for drug development because it helps identify the limiting factors in the absorption process. In this work, the 24 compounds identified from RE were classified individually according to this system to obtain relevant information regarding their absorbed oral fraction. For this purpose, only data derived from the free extract permeation were used.
Log P values were obtained for all compounds using ChemDraw software® Ultra version 8.0 (CambridgeSoft Corp. USA) and are shown in Table 2. The Log P value is a widely accepted parameter to express the lipophilicities of biological drugs in medicinal and agro chemistry. According to BCS, compounds are divided into high permeability (Class I: high permeability, high solubility; Class II: high permeability, low solubility) or low permeability (Class III: low permeability, high solubility; Class IV: low permeability, low solubility) categories by comparing with the Log P value (2.18) of the standard metoprolol, which is the reference compound employed for this purpose. Based on this parameter, the permeabilities of all compounds derived from RE were tabulated as high or low (Table 2). Moreover, the Papp value of this reference drug (0.6 x 10^−4 cm/s) was also available, which allowed us to establish another classification for the permeabilities of RE compounds based on this parameter, using the Papp values of the compounds obtained in the AB direction only for the free formulations (Table 2). Therefore, the Log P and Papp values were used in Table 2 to classify compounds as […] drugs for permeability, providing two different classifications based on the partition coefficient and the intestinal permeability.
As no information was available regarding the maximum doses of these compounds, two putative scenarios were selected to simulate a high-activity drug, dosed as a 10-mg tablet, or a low-activity drug, dosed as a 100-mg tablet. […] In the present study, all compounds were classified for BCS by considering the experimental data for absorption (Papp) and the calculated Log P value (Table 2). According to the Log P value, most compounds belong to the high-permeability classes (I and II), with class II being the most numerous (Fig 2A), except in the case of the flavonoids. However, when experimental Papp values were used for classification, the results changed dramatically, and low-permeability classes (III and IV) became the most abundant (Fig 2B). This classification was nearly independent of the solubility scenario and considered dose (compare Fig 2 and S1 Fig). […] Most flavones in RE were classified as class III (low permeability, high solubility) and class IV (low permeability, low solubility) with the exception of apigenin, for which no experimental Papp could be determined and, consequently, no BCS classification was proposed. […] The phenylpropanoid derivatives shogaol and shogaol isomer (gingerol-like compounds) were classified as class II (high permeability, low solubility), which is in agreement with the presence of a long saturated carbon chain in their structure that confers a certain degree of hydrophobicity to these compounds.

[2] = Caco-2 monolayer transport study (apparent permeability, Papp) of rosemary extract compounds; conditions: human, Caco-2, pH 7.4
[3] = tested on: Caco-2 cell monolayers; assay: as above; conditions: for Papp, Encapsulated RE, AB direction: liposomal RE formulation; for Papp, Encapsulated RE, AB direction / Papp, Non encapsulated RE, AB direction: apical to basolateral; for retention by Caco-2 cells: free formulation, AB direction
[4] = tested on: Caco-2 cell monolayers
[5] = in vitro; conditions: human, Caco-2, pH 7.4
[6] = tested on: Caco-2 cell monolayers; set-up: method as in printed; conditions: reference for BCS permeability class; stated as available, ref not given; cited from earlier work
[7] = 120 min, 37°C, mean of six replicates
[8] = free RE 200 μg/mL, 120 min, 37°C, mean of six replicates

Row | Molecule | Papp at 120 min [1] | Papp A→B at 120 min, 200 μg/mL [2] | Papp B→A at 120 min, 200 μg/mL [2] | further results
1 | C=C(C)[C@@H]1CC[C@]2(C(=O)O)CC[C@]3(C)[C@H](CC[C@@H]4[C@@]5(C)CC[C@H](O)[C@@](C)(CO)[C@@H]5CC[C@]43C)[C@@H]12 [Anemosapogenin] | < 60 ×10⁻⁶ cm/s | 3.27 ×10⁻⁶ cm/s | 6.17 ×10⁻⁶ cm/s | –
2 | CC1(C)CC[C@]2(C(=O)O)CC[C@]3(C)C(=CC[C@@H]4[C@@]5(C)C[C@H](O)[C@H](O)C(C)(C)[C@@H]5CC[C@]43C)[C@@H]2C1 [Augustic acid] | < 60 ×10⁻⁶ cm/s | 7.35 ×10⁻⁶ cm/s | 7.93 ×10⁻⁶ cm/s | –
3 | COc1cc2oc(-c3ccc(O)cc3)cc(=O)c2c(O)c1OC [Cirsimaritin] | < 60 ×10⁻⁶ cm/s | 33.3 ×10⁻⁶ cm/s | 30.7 ×10⁻⁶ cm/s | –
4 | COc1ccc(-c2cc(=O)c3c(O)cc(O)cc3o2)cc1O [Diosmetin] | < 60 ×10⁻⁶ cm/s | 2.5 ×10⁻⁶ cm/s | 4.13 ×10⁻⁶ cm/s | –
5 | COc1cc(O)c2c(=O)cc(-c3ccc(O)cc3)oc2c1 [Genkwanin] | < 60 ×10⁻⁶ cm/s | 14.9 ×10⁻⁶ cm/s | 16.2 ×10⁻⁶ cm/s | –
6 | CC(C)c1cc2c(cc1O)[C@@]1(C)CCC(=O)C(C)(C)[C@@H]1CC2 [Hinokione] | – | – | – | Papp, Encapsulated RE, AB direction [4]: no absorption; Papp, Non encapsulated RE, AB direction [4]: no absorption; Papp B→A at 120 min, 200 μg/mL [5]: 13.6 ×10⁻⁶ cm/s
7 | COc1c(O)cc2oc(-c3ccc(O)cc3)cc(=O)c2c1O [Hispidulin] | < 60 ×10⁻⁶ cm/s | 9.05 ×10⁻⁶ cm/s | 13.1 ×10⁻⁶ cm/s | –
8 | COCCc1ccc(OCC(O)CNC(C)C)cc1 (centres unmarked) [metoprolol] | – | – | – | Papp value of the reference drug [6]: 60 ×10⁻⁶ cm/s
9 | (9)-Shogaol [[9]-Shogaol] | – | – | – | retention by Caco-2 cells / transport to the receptor chamber ([3]; all samples, amounts below LOQ detected in cytoplasmic fractions): partly retained by Caco-2 cells without any transport to the receptor chamber

Second part, led by results:

Row | Papp at 120 min [1] | Papp A→B at 120 min, 200 μg/mL [2] | Papp B→A at 120 min, 200 μg/mL [2] | Molecule | further results
10 | < 60 ×10⁻⁶ cm/s | 18.5 ×10⁻⁶ cm/s | 27.7 ×10⁻⁶ cm/s | COc1c(C(C)C)cc2c(c1O)[C@@]1(C(=O)O)CCCC(C)(C)[C@@H]1CC2 [12-Methoxycarnosic acid] | Papp, Encapsulated RE, AB direction [3, 7]: no absorption
11 | < 60 ×10⁻⁶ cm/s | 5.2 ×10⁻⁶ cm/s | 7.03 ×10⁻⁶ cm/s | CC1CCC2(C(=O)O)CCC3(C)C(=CCC4C5(C)CCC(O)C(C)(C)C5CCC43C)C2C1(C)O (centres unmarked) [Benthamic acid] | –
12 | – | – | 6.3 ×10⁻⁶ cm/s | C=C(C)[C@@H]1CC[C@]2(C(=O)O)CC[C@]3(C)[C@H](CC[C@@H]4[C@@]5(C)CC[C@H](O)C(C)(C)[C@@H]5CC[C@]43C)[C@@H]12 [Betulinic acid] | detection in donor chamber, cells and receptor chamber ([3]; encapsulated formulation): detected both in the donor chamber and also inside the cells but was not detected in the receptor chamber; Papp, Non encapsulated RE, AB direction [3, 8]: not absorbed; retention by Caco-2 cells [3]: partly retained by the Caco-2 cells
13 | – | 127 ×10⁻⁶ cm/s | 90.4 ×10⁻⁶ cm/s | CC(C)c1cc2c(c(O)c1O)[C@@]1(C(=O)O)CCCC(C)(C)[C@@H]1CC2 [Carnosic acid] | Papp, Encapsulated RE, AB direction [3, 7]: no absorption
14 | < 60 ×10⁻⁶ cm/s | 14.6 ×10⁻⁶ cm/s | 13.5 ×10⁻⁶ cm/s | CC(C)c1cc2c(c(O)c1O)[C@@]13CCCC(C)(C)[C@@H]1C[C@@H]2OC3=O [Carnosol] | Papp A→B at 120 min [2]: 0.0403 ×10⁻⁶ cm/s; Papp B→A at 120 min [2]: 0.261 ×10⁻⁶ cm/s
15 | > 60 ×10⁻⁶ cm/s | 104 ×10⁻⁶ cm/s | 9.23 ×10⁻⁶ cm/s | CC(C)c1cc2c(c(O)c1O)[C@@]13CCCC(C)(C)[C@@H]1[C@H](O)[C@@H]2OC3=O [Epiisorosmanol] | Papp A→B at 120 min [2]: 8.18 ×10⁻⁶ cm/s; Papp B→A at 120 min [2]: 13 ×10⁻⁶ cm/s
16 | < 60 ×10⁻⁶ cm/s | 55.1 ×10⁻⁶ cm/s | 12.1 ×10⁻⁶ cm/s | CC(C)c1cc2c(c(O)c1O)C13CCCC(C)(C)C1C(OC3=O)C2O (centres unmarked) [Epirosmanol] | Papp A→B at 120 min [2]: 1.92 ×10⁻⁶ cm/s; Papp B→A at 120 min [2]: 2.63 ×10⁻⁶ cm/s
17 | < 60 ×10⁻⁶ cm/s | 7.2 ×10⁻⁶ cm/s | 2.45 ×10⁻⁶ cm/s | C=C1CCC2(C(=O)O)CCC3(C)C(=CCC4C5(C)CCC(O)C(C)(C)C5CCC43C)C2C1C (centres unmarked) [Micromeric acid] | –
18 | < 60 ×10⁻⁶ cm/s | 17.6 ×10⁻⁶ cm/s | – | Cc1cc2c(cc(O)c1=O)[C@@]13CCCC(C)(C)[C@@H]1C[C@@H]2OC3 [Miltipolone] | Papp B→A at 120 min [2]: 0.168 ×10⁻⁶ cm/s; Papp, Non encapsulated RE, BA direction ([3]; free RE 200 μg/mL, basolateral to apical, 120 min, 37°C, mean of six replicates): not absorbed; also recorded: no absorption; Papp, Encapsulated RE, AB direction [3, 7]: no absorption
19 | < 60 ×10⁻⁶ cm/s | 19 ×10⁻⁶ cm/s | 15.9 ×10⁻⁶ cm/s | CC(C)c1cc(C=O)c2c(c1O)OC(=O)[C@@]21CCCC(C)(C)[C@@H]1C=O [Rosmadial] | Papp A→B at 120 min [2]: 2.67 ×10⁻⁶ cm/s; Papp B→A at 120 min [2]: 12.4 ×10⁻⁶ cm/s
20 | < 60 ×10⁻⁶ cm/s | 45.9 ×10⁻⁶ cm/s | 44.2 ×10⁻⁶ cm/s | CC(C)c1cc2c(c(O)c1O)[C@@]13CCCC(C)(C)[C@@H]1[C@H](OC3=O)[C@H]2O [Rosmanol] | Papp A→B at 120 min [2]: 29.1 ×10⁻⁶ cm/s; Papp B→A at 120 min [2]: 33.3 ×10⁻⁶ cm/s
21 | < 60 ×10⁻⁶ cm/s | 2.43 ×10⁻⁶ cm/s | 2.68 ×10⁻⁶ cm/s | CC(C)c1cc2c(c(O)c1O)C(=O)C1CCCC(C)(C)C1CC2 (centres unmarked) [Rosmaridiphenol] | Papp, Non encapsulated RE, AB direction [3, 8]: E-06 range; Papp, Encapsulated RE, AB direction [3, 7]: no absorption
22 | – | – | 7.2 ×10⁻⁶ cm/s | C[C@H]1[C@H](C)CC[C@]2(C(=O)O)CC[C@]3(C)C(=CC[C@@H]4[C@@]5(C)CC[C@H](O)C(C)(C)[C@@H]5CC[C@]43C)[C@H]12 [Ursolic acid] | retention by Caco-2 cells [3]: partly retained by the Caco-2 cells
